One assay deals with G-401. In words: Anticancer activity against human G-401 cells assessed as cell growth inhibition. The assay is classed as functional, cell-based.
For assay [1], the target named is T1, eIF-2-alpha kinase GCN2 (Homo sapiens, UniProt Q9P2K8). In words: Inhibition of human GCN2 (unknown origin).
The next assay deals with Polycomb protein EED (Homo sapiens, UniProt O75530). In words: Inhibition of EED (unknown origin).
Assay [2] addresses Tubulin. The assay can be described thus: Inhibition of tubulin polymerization (unknown origin). Type of assay: protein-complex assay, Homo sapiens.
The target in assay [3] is Tubulin. In words: Inhibition of tubulin polymerization (unknown origin) by spectrophotometric analysis. The assay is classed as protein-complex assay, Homo sapiens.
For a further assay, the target named is Tubulin (Homo sapiens) (UniProt P68371+Q9H4B7+P0DPH7+P68366+Q13509+Q71U36+P04350+Q3ZCM7+P07437+P68363+Q9BQE3+Q6PEY2+Q13885+Q9BVA1+Q9BUF5). The assay can be described thus: Inhibition of tubulin polymerization (unknown origin) at 10 uM by spectrophotometric analysis relative to control. The assay is classed as protein-complex assay.
The target in assay [4] is T1, eIF-2-alpha kinase GCN2. In words: Inhibition of human recombinant GCN2 using eIF2alpha as substrate.
Assay [5] has as its target Ubiquitin carboxyl-terminal hydrolase 7 (Homo sapiens, UniProt Q93009). The assay can be described thus: Inhibition of USP7 (unknown origin).
Assay [6] deals with T2, Ubiquitin carboxyl-terminal hydrolase 28 (Homo sapiens, UniProt Q96RU2).
T2 sequence (Q96RU2 whole entry): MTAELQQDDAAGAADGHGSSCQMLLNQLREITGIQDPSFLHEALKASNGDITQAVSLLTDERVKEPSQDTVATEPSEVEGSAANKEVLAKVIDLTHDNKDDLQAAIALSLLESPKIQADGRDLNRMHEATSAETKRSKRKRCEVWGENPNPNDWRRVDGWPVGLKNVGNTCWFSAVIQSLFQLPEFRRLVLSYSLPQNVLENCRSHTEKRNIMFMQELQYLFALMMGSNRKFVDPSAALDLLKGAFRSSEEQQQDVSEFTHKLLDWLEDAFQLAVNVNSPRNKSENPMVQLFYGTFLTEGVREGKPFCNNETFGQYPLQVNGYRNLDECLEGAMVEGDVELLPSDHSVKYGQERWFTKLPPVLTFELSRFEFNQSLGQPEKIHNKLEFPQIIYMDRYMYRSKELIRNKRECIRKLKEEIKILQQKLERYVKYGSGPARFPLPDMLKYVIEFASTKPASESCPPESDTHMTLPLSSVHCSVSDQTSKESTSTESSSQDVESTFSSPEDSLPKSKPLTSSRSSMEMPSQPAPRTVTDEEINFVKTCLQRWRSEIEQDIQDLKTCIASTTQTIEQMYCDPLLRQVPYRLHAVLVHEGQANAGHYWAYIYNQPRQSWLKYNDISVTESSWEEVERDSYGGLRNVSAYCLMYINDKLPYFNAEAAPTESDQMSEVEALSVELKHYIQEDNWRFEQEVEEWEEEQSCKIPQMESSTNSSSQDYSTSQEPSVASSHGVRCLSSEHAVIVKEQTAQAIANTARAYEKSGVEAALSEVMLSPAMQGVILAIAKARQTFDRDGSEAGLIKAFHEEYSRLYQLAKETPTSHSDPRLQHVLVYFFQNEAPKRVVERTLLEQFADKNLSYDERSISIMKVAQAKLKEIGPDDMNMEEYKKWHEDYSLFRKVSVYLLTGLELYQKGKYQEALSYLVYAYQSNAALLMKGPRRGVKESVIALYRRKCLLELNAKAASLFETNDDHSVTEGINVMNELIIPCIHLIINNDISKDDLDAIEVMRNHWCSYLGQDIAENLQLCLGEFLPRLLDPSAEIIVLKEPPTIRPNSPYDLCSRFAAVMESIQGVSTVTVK
The assay can be described thus: Inhibition of USP28 (unknown origin).

The target of assay [7] is Lysine-specific histone demethylase 1A (Homo sapiens, UniProt O60341). In words: Inhibition of LSD1 (unknown origin).
Assay [8] is described as follows: Anticancer activity against human A2780AD cells assessed as cell growth measured after 48 hrs by MTT assay. The assay is classed as functional, cell-based. (In general: Formazan colour is commonly taken as a measure of viable cells.)
A further assay relates to A2780. In words: Anticancer activity against human A2780 cells assessed as cell growth measured after 48 hrs by MTT assay. The assay is classed as functional, cell-based. The conditions noted are these: A2780, 48 h.
In the next assay the test system is SW620/AD300. The assay can be described thus: Antitumor activity against […] SW620/AD300 cells xenografted in BALB/c nude mouse assessed as relative tumor proliferation rate at 100 mg/kg/day, IG measured after 15 days relative to control. Type of assay: functional, Homo sapiens. As to conditions: time 15 day. (In general: Xenograft models place foreign cells or tissue in a host animal.)

A value given as a limit tells only on which side of the number the result lay.

T1 sequence (Q9P2K8 whole entry): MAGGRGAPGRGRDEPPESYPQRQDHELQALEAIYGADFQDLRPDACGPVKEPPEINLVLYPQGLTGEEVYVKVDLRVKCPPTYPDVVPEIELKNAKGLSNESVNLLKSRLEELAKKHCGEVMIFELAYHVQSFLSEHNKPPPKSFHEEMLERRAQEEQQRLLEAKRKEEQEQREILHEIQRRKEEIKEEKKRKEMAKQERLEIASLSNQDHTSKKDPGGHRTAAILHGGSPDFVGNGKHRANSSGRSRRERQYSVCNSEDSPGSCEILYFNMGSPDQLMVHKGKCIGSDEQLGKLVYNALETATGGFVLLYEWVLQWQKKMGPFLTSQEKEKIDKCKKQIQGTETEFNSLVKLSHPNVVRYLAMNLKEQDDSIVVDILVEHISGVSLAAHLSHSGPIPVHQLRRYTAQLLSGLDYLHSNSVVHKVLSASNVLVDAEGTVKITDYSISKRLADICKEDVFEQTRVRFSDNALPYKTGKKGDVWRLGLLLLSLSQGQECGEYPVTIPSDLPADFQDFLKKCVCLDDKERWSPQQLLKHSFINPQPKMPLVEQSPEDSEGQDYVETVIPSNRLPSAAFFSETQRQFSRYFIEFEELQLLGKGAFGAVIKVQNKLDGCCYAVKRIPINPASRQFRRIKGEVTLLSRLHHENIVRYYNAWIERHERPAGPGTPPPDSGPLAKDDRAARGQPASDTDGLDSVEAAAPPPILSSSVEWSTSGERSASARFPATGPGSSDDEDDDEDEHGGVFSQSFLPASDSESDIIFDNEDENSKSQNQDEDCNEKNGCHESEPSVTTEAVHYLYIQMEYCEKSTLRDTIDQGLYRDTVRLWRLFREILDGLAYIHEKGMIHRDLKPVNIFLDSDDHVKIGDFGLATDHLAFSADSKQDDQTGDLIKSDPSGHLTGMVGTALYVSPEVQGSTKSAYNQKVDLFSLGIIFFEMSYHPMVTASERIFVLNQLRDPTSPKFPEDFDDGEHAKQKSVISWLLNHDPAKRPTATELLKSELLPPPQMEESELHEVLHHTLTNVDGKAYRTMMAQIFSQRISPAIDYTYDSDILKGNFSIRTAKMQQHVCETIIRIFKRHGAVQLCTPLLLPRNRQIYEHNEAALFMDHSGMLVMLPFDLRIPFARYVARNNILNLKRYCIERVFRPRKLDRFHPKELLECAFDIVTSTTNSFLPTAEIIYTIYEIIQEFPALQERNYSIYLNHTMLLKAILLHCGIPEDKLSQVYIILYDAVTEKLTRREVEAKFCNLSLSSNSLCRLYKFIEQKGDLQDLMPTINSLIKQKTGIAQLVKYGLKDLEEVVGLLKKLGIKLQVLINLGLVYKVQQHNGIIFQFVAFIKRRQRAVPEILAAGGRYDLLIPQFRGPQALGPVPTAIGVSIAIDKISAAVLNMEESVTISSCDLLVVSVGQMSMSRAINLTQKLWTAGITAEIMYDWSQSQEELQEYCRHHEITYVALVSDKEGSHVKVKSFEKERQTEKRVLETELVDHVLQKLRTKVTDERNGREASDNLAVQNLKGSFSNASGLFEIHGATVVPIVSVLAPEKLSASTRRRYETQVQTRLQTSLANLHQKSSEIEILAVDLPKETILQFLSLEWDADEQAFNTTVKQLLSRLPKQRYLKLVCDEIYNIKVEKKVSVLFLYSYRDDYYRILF
Chain of Polycomb protein EED (O75530 whole entry): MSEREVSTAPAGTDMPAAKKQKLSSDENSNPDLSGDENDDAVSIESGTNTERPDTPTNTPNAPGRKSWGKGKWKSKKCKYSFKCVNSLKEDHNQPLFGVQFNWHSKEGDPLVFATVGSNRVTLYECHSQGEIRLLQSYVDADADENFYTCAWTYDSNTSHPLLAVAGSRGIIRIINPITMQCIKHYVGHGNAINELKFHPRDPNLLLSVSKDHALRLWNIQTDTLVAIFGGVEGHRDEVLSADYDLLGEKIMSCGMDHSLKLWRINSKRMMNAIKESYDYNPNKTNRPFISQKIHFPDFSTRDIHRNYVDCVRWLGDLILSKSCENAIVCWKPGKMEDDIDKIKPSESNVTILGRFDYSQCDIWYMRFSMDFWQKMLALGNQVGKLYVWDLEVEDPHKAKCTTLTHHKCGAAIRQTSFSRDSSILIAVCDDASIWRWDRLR
Chain of Ubiquitin carboxyl-terminal hydrolase 7 (Q93009 whole entry): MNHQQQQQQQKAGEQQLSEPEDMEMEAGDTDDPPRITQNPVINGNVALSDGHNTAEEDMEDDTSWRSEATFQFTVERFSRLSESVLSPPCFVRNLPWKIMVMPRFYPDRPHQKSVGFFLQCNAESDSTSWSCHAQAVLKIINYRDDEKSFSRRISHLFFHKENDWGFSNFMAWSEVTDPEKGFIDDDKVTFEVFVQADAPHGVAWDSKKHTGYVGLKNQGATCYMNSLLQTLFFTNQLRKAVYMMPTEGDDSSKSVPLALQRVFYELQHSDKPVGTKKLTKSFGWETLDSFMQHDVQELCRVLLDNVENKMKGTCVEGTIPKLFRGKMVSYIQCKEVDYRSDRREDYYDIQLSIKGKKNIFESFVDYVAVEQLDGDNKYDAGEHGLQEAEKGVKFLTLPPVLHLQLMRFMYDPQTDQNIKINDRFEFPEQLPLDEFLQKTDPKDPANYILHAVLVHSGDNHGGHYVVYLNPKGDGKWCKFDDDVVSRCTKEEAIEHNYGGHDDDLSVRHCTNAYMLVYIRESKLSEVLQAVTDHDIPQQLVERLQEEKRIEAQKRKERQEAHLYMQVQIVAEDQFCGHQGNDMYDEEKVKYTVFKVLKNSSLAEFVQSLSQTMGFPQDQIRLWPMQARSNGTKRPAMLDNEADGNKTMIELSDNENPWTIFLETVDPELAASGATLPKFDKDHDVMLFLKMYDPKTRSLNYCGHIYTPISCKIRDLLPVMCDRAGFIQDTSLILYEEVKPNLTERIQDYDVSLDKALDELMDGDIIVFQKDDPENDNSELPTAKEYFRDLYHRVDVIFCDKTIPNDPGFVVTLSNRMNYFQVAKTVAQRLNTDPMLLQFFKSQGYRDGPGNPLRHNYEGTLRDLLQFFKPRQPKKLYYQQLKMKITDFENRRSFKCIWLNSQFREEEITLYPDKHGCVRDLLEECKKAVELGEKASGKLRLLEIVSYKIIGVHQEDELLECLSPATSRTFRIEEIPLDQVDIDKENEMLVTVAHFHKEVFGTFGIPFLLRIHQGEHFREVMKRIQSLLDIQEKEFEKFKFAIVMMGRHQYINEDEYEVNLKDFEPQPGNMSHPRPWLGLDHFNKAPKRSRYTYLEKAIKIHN

For orientation: IC50 means the concentration at which inhibition is half-maximal. Take `N#Cc1c2c(c3nncn3c1NCc1ccco1)CN(Cc1ccccc1)CC2`: in the assay with G-401, the IC50 is 3280 nM.

The molecule `CCOc1ccc(-n2nnc3cnc(Nc4cnn(C5CCOCC5)c4)nc32)cc1` had an IC50 against eIF-2-alpha kinase GCN2 [1] of 16 nM.

In turn, `Cc1ncccc1-c1cnc(NCc2c(F)cc(N)c3c2CCO3)n2cnnc12` returned a half-maximal inhibitory concentration (IC50) on Polycomb protein EED of 50 nM.

Take `COc1cc(-c2cc(-c3ccc(Cl)cc3)nc3nc(N)nn23)cc(OC)c1OC`: inhibition against Tubulin [2] was half-maximal at 3840 nM (IC50).

Regarding `COc1ccc(-c2c(C(C)=O)c(C)nc3nc(-c4cc(OC)c(OC)c(OC)c4)nn23)cc1[N+](=O)[O-]`, on Tubulin [3], the IC50 came out at 9900 nM.

As a reminder, the inhibition is the drop in the measured response relative to a control, in per cent. The low end stands for little suppression, the high end for strong suppression. As to `COc1cc(-c2nc3nc(C)c(C(C)=O)c(-c4ccc([N+](=O)[O-])cc4)n3n2)cc(OC)c1OC`, the inhibition on Tubulin (Homo sapiens) worked out at 42%.

In the case of `COc1ccc(-n2nnc3cnc(Nc4ccc(N)c(C)c4)nc32)cc1`, the IC50 on eIF-2-alpha kinase GCN2 [4] worked out at 4 nM.

Regarding `c1nn(C2CCOCC2)cc1Nc1ncc2nnn(-c3ccc4cn[nH]c4c3)c2n1`, the IC50 at eIF-2-alpha kinase GCN2 [1] is below 300 nM.

In the case of `CCCSc1nc(NCCN)c2nnn(Cc3ccc(Cl)cc3)c2n1`, the IC50 was above 100000 nM in assay [5], 1100 nM in assay [6] and above 100000 nM in assay [7].

On to `CO[C@H]1C[C@H]2CC[C@@H](C1)N2c1c(-c2c(F)cc(F)cc2F)c(Cl)nc2ncnn12`, for which the results for the IC50 (in assay [8]; in the assay with A2780) were 81 nM and 51 nM, respectively.

In turn, `Cc1cc(Nc2ccc(F)cc2)n2nc(NCCCc3ccccc3)nc2n1` showed an IC50 at Tubulin [2] of 390 nM.

As a reminder, the T/C is the result in the treated group divided by that in the control group, in per cent. With `Cc1cc(Nc2ccccc2)n2nc(SCc3nc4ccccc4[nH]3)nc2n1`, the T/C in the assay on SW620/AD300 turned out to be 29.7%.

Consider `CS(=O)(=O)c1ccc(-c2cnc(NCc3ccco3)n3cnnc23)cc1`, for which the IC50 stood at 30 nM against Polycomb protein EED and 85000 nM with G-401.

These data come from ChEMBL document CHEMBL5346898, “Triazole-fused pyrimidines in target-based anticancer drug discovery” (Eur J Med Chem, 2023).
